Here are results for one compound from patent US20160128336A1, “MICROBIAL AGRICULTURE” (DSM IP ASSETS B.V., priority 2013, published 2016).

The test system of the experiment is Colletotrichum gloeosporioides (CBS272.51). Briefly: Agar plug bio-assay on YME agar, fungal colony radius towards Streptomyces or natamycin plug. Type of experiment: cell-based. The settings on record: Table 7; 10 ppm natamycin in agar plug (5% w/w methanol), 7 days at 28° C. The method, then: Three fungal plant pathogens were tested against the selected S. natalensis strains: Fusarium oxysporum f.sp. lycopersici (CBS414.90), Colletotrichum gloeosporioides (CBS272.51) and Alternaria alternata (CBS103.33). Fusarium oxysporum f.sp. lycopersici is a soil borne fungus causing yield loss in e.g. tomato crops (Fusarium Wilt). Colletotrichum gloeosporioides causes e.g. anthracnose, a plant disease recognizable by dark brown lesions on leaves and fruits. Alternaria alternata is a worldwide occurring saprophyte that can cause phytopathogenic reactions in economically important host plants. The selected S. natalensis strains were tested against these fungal plant pathogens as described below.
Frozen vials (glycerol stocks) or freeze dried tubes from the selected S. natalensis strains were transferred to 100 ml baffled Erlenmeyer flasks containing 20 ml of Yeast Malt Extract broth (YME). […]
The bio-assay was done as follows. […] After 7 days the radius of the fungal colony was measured in the direction of the opposite agar plug (Streptomyces sample). […] The inhibition zone (in percentage) was calculated by using the following formula: 100% * (r0-r1)/r0, wherein r0is the radius (in mm, corrected for the plug radius) of the fungal colony from the control sample and wherein r1 is the radius (in mm, corrected for the plug radius) of the fungal colony from the Streptomyces inhibited sample. […]

Molecules are shown by their SMILES.

Take `C[C@@H]1C/C=C/C=C/C=C/C=C/[C@H](O[C@@H]2O[C@H](C)[C@@H](O)[C@H](N)[C@@H]2O)C[C@@H]2O[C@](O)(C[C@@H](O)C[C@H]3O[C@@H]3/C=C/C(=O)O1)C[C@H](O)[C@H]2C(=O)O` [Natamycin, natamycin]: the “Average inhibition zone (in %)” value is given as “not as high”.
